Experiments:
[1] = target: T1, Muscarinic acetylcholine receptor M2 (Homo sapiens, UniProt P08172); format: functional, cell-based
T1 sequence (P08172 whole entry): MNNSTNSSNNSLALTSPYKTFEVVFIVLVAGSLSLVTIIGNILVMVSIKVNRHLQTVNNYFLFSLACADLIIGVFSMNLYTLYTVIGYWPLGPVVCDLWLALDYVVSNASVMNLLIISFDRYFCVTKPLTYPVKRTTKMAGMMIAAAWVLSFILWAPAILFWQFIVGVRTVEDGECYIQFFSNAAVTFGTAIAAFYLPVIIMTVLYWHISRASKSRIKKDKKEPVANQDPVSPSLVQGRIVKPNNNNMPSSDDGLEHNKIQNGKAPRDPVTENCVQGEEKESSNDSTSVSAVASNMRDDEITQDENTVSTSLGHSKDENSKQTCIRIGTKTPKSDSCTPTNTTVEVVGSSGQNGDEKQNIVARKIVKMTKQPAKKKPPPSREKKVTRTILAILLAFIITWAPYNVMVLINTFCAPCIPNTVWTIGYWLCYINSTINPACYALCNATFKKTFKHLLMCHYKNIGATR

[2] = target: T2, Glucocorticoid receptor (Homo sapiens, UniProt P04150)
T2 sequence (P04150 whole entry): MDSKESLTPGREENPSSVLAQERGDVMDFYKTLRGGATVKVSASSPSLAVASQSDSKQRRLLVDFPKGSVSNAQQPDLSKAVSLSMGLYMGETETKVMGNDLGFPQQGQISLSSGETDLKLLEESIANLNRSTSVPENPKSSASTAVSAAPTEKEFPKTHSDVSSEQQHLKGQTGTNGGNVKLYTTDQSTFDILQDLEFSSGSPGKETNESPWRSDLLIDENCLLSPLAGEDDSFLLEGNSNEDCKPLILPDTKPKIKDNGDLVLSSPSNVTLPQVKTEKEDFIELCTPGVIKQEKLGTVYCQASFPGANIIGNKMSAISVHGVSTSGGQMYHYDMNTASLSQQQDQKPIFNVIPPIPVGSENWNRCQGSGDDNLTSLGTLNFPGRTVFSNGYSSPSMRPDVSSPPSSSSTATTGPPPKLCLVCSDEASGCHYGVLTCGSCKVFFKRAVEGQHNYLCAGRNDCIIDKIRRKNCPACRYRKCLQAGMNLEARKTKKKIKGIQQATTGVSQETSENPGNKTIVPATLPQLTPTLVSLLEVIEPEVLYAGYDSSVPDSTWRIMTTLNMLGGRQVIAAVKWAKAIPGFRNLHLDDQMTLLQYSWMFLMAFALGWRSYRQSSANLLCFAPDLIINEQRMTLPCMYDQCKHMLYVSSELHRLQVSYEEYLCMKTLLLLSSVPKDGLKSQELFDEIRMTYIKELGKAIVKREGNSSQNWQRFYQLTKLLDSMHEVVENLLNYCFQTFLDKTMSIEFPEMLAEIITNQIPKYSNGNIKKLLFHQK

[3] = target: Glutamate receptor ionotropic, NMDA 1 (Rattus norvegicus, UniProt P35439)
[4] = target: Cannabinoid receptor 1 (Homo sapiens, UniProt P21554); format: functional, cell-based
[5] = target: Beta-2 adrenergic receptor (Homo sapiens, UniProt P07550)
[6] = target: Beta-1 adrenergic receptor (Homo sapiens, UniProt P08588); format: functional
Also: assay procedure not described here.

Chain of Cannabinoid receptor 1 (P21554 whole entry): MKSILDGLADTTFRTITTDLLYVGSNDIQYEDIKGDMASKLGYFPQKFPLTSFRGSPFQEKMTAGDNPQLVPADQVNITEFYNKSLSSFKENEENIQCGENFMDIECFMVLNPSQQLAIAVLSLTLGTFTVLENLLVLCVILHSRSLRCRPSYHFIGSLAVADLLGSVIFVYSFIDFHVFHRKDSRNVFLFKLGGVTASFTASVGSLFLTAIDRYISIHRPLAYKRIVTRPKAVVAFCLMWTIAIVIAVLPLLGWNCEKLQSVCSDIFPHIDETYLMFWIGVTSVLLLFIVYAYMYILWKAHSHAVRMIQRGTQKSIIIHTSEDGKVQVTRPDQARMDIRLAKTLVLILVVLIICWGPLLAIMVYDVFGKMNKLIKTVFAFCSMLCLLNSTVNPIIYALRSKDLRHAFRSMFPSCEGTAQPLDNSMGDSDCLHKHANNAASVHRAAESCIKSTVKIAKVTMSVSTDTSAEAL
Chain of Beta-2 adrenergic receptor (P07550 whole entry): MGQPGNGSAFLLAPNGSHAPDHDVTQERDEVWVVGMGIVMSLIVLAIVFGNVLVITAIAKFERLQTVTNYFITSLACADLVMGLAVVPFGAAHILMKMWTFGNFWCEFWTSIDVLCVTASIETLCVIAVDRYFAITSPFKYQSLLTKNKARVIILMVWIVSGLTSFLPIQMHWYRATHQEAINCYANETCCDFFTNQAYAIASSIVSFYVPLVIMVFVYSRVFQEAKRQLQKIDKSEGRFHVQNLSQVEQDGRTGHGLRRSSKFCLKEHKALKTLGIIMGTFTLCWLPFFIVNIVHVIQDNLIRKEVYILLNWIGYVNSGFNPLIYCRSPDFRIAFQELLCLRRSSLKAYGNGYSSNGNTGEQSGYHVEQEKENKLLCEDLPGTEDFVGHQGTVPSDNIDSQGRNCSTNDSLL
Chain of Beta-1 adrenergic receptor (P08588 whole entry): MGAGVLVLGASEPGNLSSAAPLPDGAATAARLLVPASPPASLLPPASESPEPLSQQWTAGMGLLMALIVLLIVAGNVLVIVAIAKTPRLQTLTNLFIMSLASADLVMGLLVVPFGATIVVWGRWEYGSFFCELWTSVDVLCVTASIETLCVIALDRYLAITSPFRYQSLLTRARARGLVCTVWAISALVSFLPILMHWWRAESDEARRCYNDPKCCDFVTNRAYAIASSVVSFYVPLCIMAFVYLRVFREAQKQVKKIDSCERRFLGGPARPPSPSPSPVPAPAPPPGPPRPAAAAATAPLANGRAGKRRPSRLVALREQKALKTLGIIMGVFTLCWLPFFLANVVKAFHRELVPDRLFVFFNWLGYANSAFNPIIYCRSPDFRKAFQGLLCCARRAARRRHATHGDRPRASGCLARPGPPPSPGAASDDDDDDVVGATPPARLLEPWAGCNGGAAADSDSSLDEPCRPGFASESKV

## CCOC(=O)[C@H](CCc1ccccc1)N[C@@H](C)C(=O)N1CCC[C@H]1C(=O)O
[1]
  AC50: > 10 µM
[2]
  AC50: > 30 µM
[3]
  AC50: > 10 µM
[4]
  AC50: > 30 µM
[5]
  AC50: > 10 µM
[6]
  AC50: > 10 µM

## CC(N)Cc1ccccc1 (configuration not stated) [AMPHETAMINE]
[1]
  AC50: > 30 µM
[2]
  AC50: > 30 µM
[3]
  AC50: > 10 µM
[4]
  AC50: > 30 µM
[6]
  AC50: > 30 µM

## CCC[C@@H]1C[C@@H](C(=O)N[C@@H]([C@H]2O[C@H](SC)[C@H](O)[C@@H](O)[C@H]2O)[C@H](C)Cl)N(C)C1 [CLINDAMYCIN]
[1]
  AC50: > 10 µM
[3]
  AC50: > 10 µM
[4]
  AC50: > 30 µM
[5]
  AC50: > 10 µM
[6]
  AC50: > 10 µM

## CC(=O)OCC(=O)[C@@]1(O)CC[C@H]2[C@@H]3CCC4=CC(=O)CC[C@]4(C)[C@H]3C(=O)C[C@@]21C [CORTISONE ACETATE]
[3]
  AC50: > 30 µM
[4]
  AC50: > 30 µM

## O=C(O)c1cc(-c2ccc(F)cc2F)ccc1O [DIFLUNISAL]
[1]
  AC50: > 10 µM
[2]
  AC50: > 10 µM
[3]
  AC50: > 10 µM
[5]
  AC50: > 10 µM
[6]
  AC50: > 10 µM

## NC(N)=Nc1nc(CSCCC(N)=NS(N)(=O)=O)cs1 [FAMOTIDINE]
[1]
  AC50: > 10 µM
[2]
  AC50: > 30 µM
[3]
  AC50: > 10 µM
[4]
  AC50: > 30 µM
[5]
  AC50: > 10 µM
[6]
  AC50: > 10 µM

## NS(=O)(=O)c1cc2c(cc1Cl)NCNS2(=O)=O [HYDROCHLOROTHIAZIDE]
[1]
  AC50: > 10 µM
[2]
  AC50: > 30 µM
[3]
  AC50: > 10 µM
[5]
  AC50: > 10 µM
[6]
  AC50: > 10 µM

## CC(C)NNC(=O)c1ccncc1 [IPRONIAZID]
[1]
  AC50: > 30 µM
[4]
  AC50: > 30 µM
[6]
  AC50: > 30 µM

## NC[C@H]1O[C@H](O[C@H]2[C@H](O)[C@@H](O[C@H]3O[C@H](CO)[C@@H](O)[C@H](N)[C@H]3O)[C@H](N)C[C@@H]2N)[C@H](O)[C@@H](O)[C@@H]1O [KANAMYCIN]
[1]
  AC50: > 10 µM
[2]
  AC50: > 10 µM
[3]
  AC50: > 10 µM
[5]
  AC50: > 10 µM

## C[C@H]1C[C@@H]2[C@H]([C@@H](O)C[C@@]3(C)[C@H]2CC[C@]3(O)C(=O)CO)[C@@]2(C)C=CC(=O)C=C12 [METHYLPREDNISOLONE]
[1]
  AC50: > 10 µM
[3]
  AC50: > 10 µM
[5]
  AC50: > 10 µM
[6]
  AC50: > 10 µM

## CCN(CC)CCNC(=O)c1cc(Cl)c(N)cc1OC [METOCLOPRAMIDE]
[3]
  AC50: > 10 µM
[4]
  AC50: > 30 µM
[5]
  AC50: > 10 µM
[6]
  AC50: > 10 µM

## CC(C)(C(=O)c1cccnc1)c1cccnc1 [METYRAPONE]
[1]
  AC50: > 10 µM
[2]
  AC50: > 10 µM
[3]
  AC50: > 10 µM
[5]
  AC50: > 10 µM
[6]
  AC50: > 10 µM

## Cc1cccc(C)c1OCC(C)N (configuration not stated) [MEXILETINE]
[1]
  AC50: > 30 µM
[4]
  AC50: > 30 µM
[6]
  AC50: > 30 µM

## CCc1nn(CCCN2CCN(c3cccc(Cl)c3)CC2)c(=O)n1CCOc1ccccc1 [NEFAZODONE]
[3]
  AC50: > 10 µM
[4]
  AC50: > 30 µM
[5]
  AC50: > 10 µM
[6]
  AC50: > 10 µM

## COC(=O)C1=C(C)NC(C)=C(C(=O)OCC(C)C)C1c1ccccc1[N+](=O)[O-] (configuration not stated) [NISOLDIPINE]
[1]
  AC50: > 10 µM
[2]
  AC50: 8.8 µM
[3]
  AC50: > 10 µM
[4]
  AC50: > 30 µM
[5]
  AC50: > 10 µM
[6]
  AC50: > 10 µM

## NC1=NC(=O)C(c2ccccc2)O1 (configuration not stated) [PEMOLINE]
[1]
  AC50: > 10 µM
[2]
  AC50: > 30 µM
[3]
  AC50: > 10 µM
[5]
  AC50: > 10 µM
[6]
  AC50: > 10 µM

## CC[C@H](C)C(=O)O[C@H]1C[C@H](O)C=C2C=C[C@H](C)[C@H](CC[C@@H](O)C[C@@H](O)CC(=O)O)[C@H]21 [PRAVASTATIN]
[1]
  AC50: > 30 µM
[3]
  AC50: > 10 µM
[4]
  AC50: > 30 µM
[5]
  AC50: > 10 µM
[6]
  AC50: > 30 µM

## CNC(=O)c1cc(Oc2ccc(NC(=O)Nc3ccc(Cl)c(C(F)(F)F)c3)cc2)ccn1 [SORAFENIB]
[1]
  AC50: > 30 µM
[2]
  AC50: > 30 µM
[3]
  AC50: > 30 µM
[4]
  AC50: > 30 µM
[5]
  AC50: > 30 µM
[6]
  AC50: 28 µM

## NC[C@H]1CC[C@H](C(=O)O)CC1 [TRANEXAMIC ACID]
[1]
  AC50: > 10 µM
[3]
  AC50: > 10 µM
[5]
  AC50: > 10 µM
[6]
  AC50: > 10 µM
